Experimental data as given in patent publication US20080063668A1, “Nitroimidazole and terconazole composition and method” (priority 2006, published 2008).

How the values were obtained:
Atopobium vaginae BAA-55 = test: Inhibition of bacteria growth, drug dilution tubes, anaerobic; assay type: cell-based; design: key to growth: (+) for growth; (−) for no growth; (±) for suboptimal growth after an initial observation of growth
Procedure: (§1) Serial dilutions of tinidazole and terconazole were prepared by adding measured amounts of each substance to water (both individually and in combination). Seven bacterial organisms that are common pathogens in bacterial vaginosis were grown anaerobically in the medium as listed in Table 4 under a N2/H2/CO2 (85:5:10) head space atmosphere. [table] These cultures were diluted to a 0.5 McFarland standard prior to inoculation of drug dilution tubes. One (1) mL of the 0.5 McFarland preparation was inoculated to an anaerobically prepared test tube containing 0.8 mL of Difco anaerobic medium (DAMM) and 0.2 mL of appropriate diluted antimicrobial or antimicrobial combination for a total of 2 mL. The inoculated tubes were then incubated at 37° C. and monitored daily for growth. Growth was scored with a (+) for growth, (−) for no growth, and (±) for suboptimal growth after an initial observation of growth. Tinidazole is abbreviated as TNZ and terconazole is abbreviated as TER in Tables 5 through 11.

[1] = test system: Mobiluncus mulieris ATCC 35243; test: as above; assay type: cell-based; design: key to growth: (+) for growth; (−) for no growth; (±) for suboptimal growth after an initial observation of growth
Procedure: as §1

[2] = neutral pH; cited from earlier work

In the case of `CC(C)N1CCN(c2ccc(OCC3COC(Cn4cncn4)(c4ccc(Cl)cc4Cl)O3)cc2)CC1` (stereo not drawn) [TER, cis-1-[p[[2-(2,4-dichlorophenyl)-2-(1 H-1,2,4-triazol-1-ylmethyl)-1,3-dioxolan-4-yl]methoxy]phenyl]-4-isopropylpiperazine], the growth (Atopobium vaginae BAA-55; TER 50 μg/ml, DAY 4) was “(+)”, the growth (Atopobium vaginae BAA-55; TER 50 μg/ml, DAY 5) was “(+)” and the growth (Atopobium vaginae BAA-55; TER 100 μg/ml, DAY 1) was “(−)”. For the same compound, the growth (Atopobium vaginae BAA-55; TER 100 μg/ml, DAY 2) was “(−)”, the growth (Atopobium vaginae BAA-55; TER 100 μg/ml, DAY 3) was “(+)” and the growth (Atopobium vaginae BAA-55; TER 100 μg/ml, DAY 4) was “(+)”. The growth (Atopobium vaginae BAA-55; TER 100 μg/ml, DAY 5) was “(+)”, the growth (Atopobium vaginae BAA-55; TER 200 μg/ml, DAY 1) was “(−)” and the growth (Atopobium vaginae BAA-55; TER 200 μg/ml, DAY 2) was “(−)”. For the same compound, the growth (Atopobium vaginae BAA-55; TER 200 μg/ml, DAY 3) was “(−)”, the growth (Atopobium vaginae BAA-55; TER 200 μg/ml, DAY 4) was “(+)” and the growth (Atopobium vaginae BAA-55; TER 200 μg/ml, DAY 5) was “(+)”. The growth (Atopobium vaginae BAA-55; TER 400 μg/ml, DAY 1) was “(−)”, the growth (Atopobium vaginae BAA-55; TER 400 μg/ml, DAY 2) was “(−)” and the growth (Atopobium vaginae BAA-55; TER 400 μg/ml, DAY 3) was “(−)”. The growth (Atopobium vaginae BAA-55; TER 400 μg/ml, DAY 4) was “(−)”, the growth (Atopobium vaginae BAA-55; TER 400 μg/ml, DAY 5) was “(−)” and the growth (Atopobium vaginae BAA-55; TER 800 μg/ml, DAY 1) was “(−)”. The growth (Atopobium vaginae BAA-55; TER 800 μg/ml, DAY 2) was “(−)”, the growth (Atopobium vaginae BAA-55; TER 800 μg/ml, DAY 3) was “(−)” and the growth (Atopobium vaginae BAA-55; TER 800 μg/ml, DAY 4) was “(−)”. For the same compound, the growth (Atopobium vaginae BAA-55; TER 800 μg/ml, DAY 5) was “(−)”, the “antibacterial activity compared with tinidazole” value (Atopobium vaginae BAA-55; Tables 6 through 11) was “superior to the antibacterial compound tinidazole” and the growth ([1]; TER 3.1 μg/ml, DAY 1) was “(+)”. For the same compound, the growth ([1]; TER 3.1 μg/ml, DAY 2) was “(+)”, the growth ([1]; TER 3.1 μg/ml, DAY 3) was “(+)” and the growth ([1]; TER 3.1 μg/ml, DAY 4) was “(+)”. For the same compound, the growth ([1]; TER 3.1 μg/ml, DAY 5) was “(+)”, the growth ([1]; TER 6.2 μg/ml, DAY 1) was “(+)” and the growth ([1]; TER 6.2 μg/ml, DAY 2) was “(+)”. The growth ([1]; TER 6.2 μg/ml, DAY 3) was “(+)”, the growth ([1]; TER 6.2 μg/ml, DAY 4) was “(+)” and the growth ([1]; TER 6.2 μg/ml, DAY 5) was “(+)”. For the same compound, the growth ([1]; TER 12.5 μg/ml, DAY 1) was “(+)”, the growth ([1]; TER 12.5 μg/ml, DAY 2) was “(+)” and the growth ([1]; TER 12.5 μg/ml, DAY 3) was “(+)”. The growth ([1]; TER 12.5 μg/ml, DAY 4) was “(+)”, the growth ([1]; TER 12.5 μg/ml, DAY 5) was “(+)” and the growth ([1]; TER 25 μg/ml, DAY 1) was “(+)”. The growth ([1]; TER 25 μg/ml, DAY 2) was “(+)”, the growth ([1]; TER 25 μg/ml, DAY 3) was “(+)” and the growth ([1]; TER 25 μg/ml, DAY 4) was “(+)”. For the same compound, the growth ([1]; TER 25 μg/ml, DAY 5) was “(+)”, the growth ([1]; TER 50 μg/ml, DAY 1) was “(+)” and the growth ([1]; TER 50 μg/ml, DAY 2) was “(+)”. The growth ([1]; TER 50 μg/ml, DAY 3) was “(+)”, the growth ([1]; TER 50 μg/ml, DAY 4) was “(+)” and the growth ([1]; TER 50 μg/ml, DAY 5) was “(+)”. The growth ([1]; TER 100 μg/ml, DAY 1) was “(+)”, the growth ([1]; TER 100 μg/ml, DAY 2) was “(+)” and the growth ([1]; TER 100 μg/ml, DAY 3) was “(+)”. The growth ([1]; TER 100 μg/ml, DAY 4) was “(+)”, the growth ([1]; TER 100 μg/ml, DAY 5) was “(+)” and the growth ([1]; TER 200 μg/ml, DAY 1) was “(+)”. The growth ([1]; TER 200 μg/ml, DAY 2) was “(+)”, the growth ([1]; TER 200 μg/ml, DAY 3) was “(+)” and the growth ([1]; TER 200 μg/ml, DAY 4) was “(+)”. For the same compound, the growth ([1]; TER 200 μg/ml, DAY 5) was “(+)”, the growth ([1]; TER 400 μg/ml, DAY 1) was “(−)” and the growth ([1]; TER 400 μg/ml, DAY 2) was “(−)”. The growth ([1]; TER 400 μg/ml, DAY 3) was “(−)”, the growth ([1]; TER 400 μg/ml, DAY 4) was “(−)” and the growth ([1]; TER 400 μg/ml, DAY 5) was “(−)”. For the same compound, the growth ([1]; TER 800 μg/ml, DAY 1) was “(−)”, the growth ([1]; TER 800 μg/ml, DAY 2) was “(−)” and the growth ([1]; TER 800 μg/ml, DAY 3) was “(−)”. For the same compound, the growth ([1]; TER 800 μg/ml, DAY 4) was “(−)”, the growth ([1]; TER 800 μg/ml, DAY 5) was “(−)” and the “antibacterial activity compared with tinidazole” value ([1]; Tables 6 through 11) was “superior to the antibacterial compound tinidazole”. The “solubility in water (in words)” value [2] was “substantially insoluble”.
